The text below walks through data of patent publication US5039670A, “Antithrombotic substituted cycloalkano(B)dihydroindole- and -indole-sulphonamides and use” (Bayer Aktiengesellschaft, priority 1989, dated 1991).

The test concerns thrombocyte aggregation. In words: Inhibition of collagen-triggered thrombocyte aggregation in platelet-rich citrated plasma (turbidometry, aggregometer). The format is cell-based. The note with it: Homo sapiens, 0.1 h, 37° C., response after 6 minutes, read-out: EC (limiting concentration, range of the minimum effective concentration). Here is the method: To determine the action as an inhibitor of thrombocyte aggregation, blood was used from healthy subjects of both sexes. 9 parts of blood were treated with one part of 3.8% strength aqueous sodium citrate solution as an anticoagulant. From this blood, platelet-rich citrated plasma (PRP)^1 is obtained (Jurgens/Beller, Klinische Methoden der Blutgerinnungsanalyse [Clinical Methods in Blood Coagulation Analysis]; Thieme Verlag, Stuttgart, 1959).
For these assays, 0.8 ml of (PRP)^1 and 0.1 ml of the active compound solution were preincubated at 37° C. in a water bath. The thrombocyte aggregation was then determined in an aggregometer at 37° C. (Therapeutische Berichte 47, 80-86, 1975) by means of turbidometry (Born, G.V.R., J. Physiol. (London), 162, 67, 1962). For this purpose, the preincubated sample was treated with 0.1 ml of collagen, an agent which triggers aggregations. The (PRP)^1 sample underwent changes in optical density, which was recorded during a period of 6 minutes, and the response was determined after 6 minutes. From this, the inhibition compared with the control is calculated as a percentage. The limiting concentration given is the range of the minimum effective concentration.

Take `O=C(O)CCn1c2c(c3cc(F)cc(F)c31)CC(NS(=O)(=O)c1ccc(Cl)cc1)CC2` (stereo not drawn) [Example 4]: the minimal effective concentration was in the range of 0.01 to 0.03 µg/mL.
With `CCOC(=O)CCn1c2c(c3cc(F)ccc31)CC(NS(=O)(=O)c1ccc(Cl)cc1)CC2` (stereo not drawn) [Example 8] the figure was 0.3 to 1 µg/mL; with `NC(=O)CCn1c2c(c3cc(F)ccc31)CC(NS(=O)(=O)c1ccc(Cl)cc1)CC2` (stereo not drawn) [Example 15], 0.01 to 0.03 µg/mL.
